# Reference: PMC7730235, “Discovery of a Novel Class of Covalent Dual Inhibitors Targeting the Protein Kinases BMX and BTK” (International Journal of Molecular Sciences, 2020)
# Experiments:
# Experiment in all cases: Radiometric kinase assay (Reaction Biology HotSpot)
# Assay type in all cases: biochemical
# BLK = molecular target: T1, BLK (Homo sapiens, UniProt P51451); details: [ATP] = 10 μM; for remaining activity at 0.2 µM: 200 nM compound, duplicate mean, read-out: Residual Activity @ 200 nM, BLK
# T1 construct: purchased Reaction Biology Corporation
# T1 sequence (P51451 whole entry): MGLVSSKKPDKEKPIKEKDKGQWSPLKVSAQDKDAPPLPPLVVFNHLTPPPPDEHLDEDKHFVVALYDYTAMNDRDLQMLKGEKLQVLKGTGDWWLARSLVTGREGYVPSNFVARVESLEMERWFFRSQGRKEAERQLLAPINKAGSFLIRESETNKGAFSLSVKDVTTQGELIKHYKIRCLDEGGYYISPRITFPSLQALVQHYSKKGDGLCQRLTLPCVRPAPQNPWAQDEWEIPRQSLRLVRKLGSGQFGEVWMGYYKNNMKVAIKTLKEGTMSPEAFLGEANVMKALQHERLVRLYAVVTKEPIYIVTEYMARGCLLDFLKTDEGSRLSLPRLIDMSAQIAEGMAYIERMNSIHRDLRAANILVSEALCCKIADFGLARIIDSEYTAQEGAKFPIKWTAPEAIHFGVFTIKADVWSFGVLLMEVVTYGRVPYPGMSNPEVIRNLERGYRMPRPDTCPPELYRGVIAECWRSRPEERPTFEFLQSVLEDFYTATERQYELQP
# Protocol: (§1) If not mentioned differently, in vitro profiling of compounds was performed at Reaction Biology Corporation using the HotSpot™ assay platform.
# BMX = molecular target: T2, BMX (Homo sapiens, UniProt P51813); details: [ATP] = 10 μM; for remaining activity at 0.2 µM: 200 nM compound, duplicate mean, read-out: Residual Activity @ 200 nM, BMX; for IC50: radiometric HotSpot, five-dose singlicate
# T2 construct: purchased Reaction Biology Corporation
# T2 sequence (P51813 1-675): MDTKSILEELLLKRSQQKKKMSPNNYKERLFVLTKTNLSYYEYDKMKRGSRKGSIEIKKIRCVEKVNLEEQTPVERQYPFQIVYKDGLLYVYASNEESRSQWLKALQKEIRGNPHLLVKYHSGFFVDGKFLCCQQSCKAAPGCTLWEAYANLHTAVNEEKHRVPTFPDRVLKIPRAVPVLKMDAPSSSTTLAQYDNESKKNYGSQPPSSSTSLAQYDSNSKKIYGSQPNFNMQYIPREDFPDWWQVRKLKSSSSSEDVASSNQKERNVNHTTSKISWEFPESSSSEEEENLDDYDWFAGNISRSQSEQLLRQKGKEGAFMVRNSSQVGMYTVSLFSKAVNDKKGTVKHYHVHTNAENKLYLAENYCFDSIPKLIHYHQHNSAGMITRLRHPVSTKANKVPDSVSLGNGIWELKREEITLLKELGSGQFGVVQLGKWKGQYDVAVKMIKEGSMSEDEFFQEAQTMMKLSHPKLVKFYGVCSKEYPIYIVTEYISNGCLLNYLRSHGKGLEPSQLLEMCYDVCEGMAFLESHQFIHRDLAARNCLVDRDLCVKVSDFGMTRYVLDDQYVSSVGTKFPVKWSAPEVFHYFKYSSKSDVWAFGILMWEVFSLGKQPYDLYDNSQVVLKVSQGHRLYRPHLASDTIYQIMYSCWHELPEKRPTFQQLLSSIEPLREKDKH
# Protocol: as §1
# BTK = molecular target: T3, BTK (Homo sapiens, UniProt Q06187); details: [ATP] = 10 μM; for remaining activity at 0.2 µM: read-out: Residual Activity @ 200 nM, BTK
# T3 construct: purchased Reaction Biology Corporation
# T3 sequence (Q06187 whole entry): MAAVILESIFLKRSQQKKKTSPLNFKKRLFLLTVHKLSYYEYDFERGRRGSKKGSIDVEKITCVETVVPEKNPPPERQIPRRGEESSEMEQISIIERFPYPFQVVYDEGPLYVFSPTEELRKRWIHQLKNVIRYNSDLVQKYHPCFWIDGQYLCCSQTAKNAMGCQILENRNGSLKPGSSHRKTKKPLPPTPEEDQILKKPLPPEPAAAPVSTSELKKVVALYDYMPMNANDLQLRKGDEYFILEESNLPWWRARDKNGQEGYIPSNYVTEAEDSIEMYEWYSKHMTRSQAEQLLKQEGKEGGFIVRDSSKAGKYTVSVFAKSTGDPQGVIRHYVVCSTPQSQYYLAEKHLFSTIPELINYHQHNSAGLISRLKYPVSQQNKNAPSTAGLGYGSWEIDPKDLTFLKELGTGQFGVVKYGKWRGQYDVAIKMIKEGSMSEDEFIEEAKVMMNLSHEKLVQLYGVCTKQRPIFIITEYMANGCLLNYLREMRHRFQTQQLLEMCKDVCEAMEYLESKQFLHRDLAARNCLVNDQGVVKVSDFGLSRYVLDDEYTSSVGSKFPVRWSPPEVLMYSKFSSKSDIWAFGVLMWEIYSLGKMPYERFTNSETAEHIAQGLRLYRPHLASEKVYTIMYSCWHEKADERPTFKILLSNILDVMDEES
# Protocol: as §1
# ITK = molecular target: T4, ITK (Homo sapiens, UniProt Q08881); details: 200 nM compound, duplicate mean, [ATP] = 10 μM; read-out: Residual Activity @ 200 nM, ITK
# T4 construct: purchased Reaction Biology Corporation
# T4 sequence (Q08881 1-620): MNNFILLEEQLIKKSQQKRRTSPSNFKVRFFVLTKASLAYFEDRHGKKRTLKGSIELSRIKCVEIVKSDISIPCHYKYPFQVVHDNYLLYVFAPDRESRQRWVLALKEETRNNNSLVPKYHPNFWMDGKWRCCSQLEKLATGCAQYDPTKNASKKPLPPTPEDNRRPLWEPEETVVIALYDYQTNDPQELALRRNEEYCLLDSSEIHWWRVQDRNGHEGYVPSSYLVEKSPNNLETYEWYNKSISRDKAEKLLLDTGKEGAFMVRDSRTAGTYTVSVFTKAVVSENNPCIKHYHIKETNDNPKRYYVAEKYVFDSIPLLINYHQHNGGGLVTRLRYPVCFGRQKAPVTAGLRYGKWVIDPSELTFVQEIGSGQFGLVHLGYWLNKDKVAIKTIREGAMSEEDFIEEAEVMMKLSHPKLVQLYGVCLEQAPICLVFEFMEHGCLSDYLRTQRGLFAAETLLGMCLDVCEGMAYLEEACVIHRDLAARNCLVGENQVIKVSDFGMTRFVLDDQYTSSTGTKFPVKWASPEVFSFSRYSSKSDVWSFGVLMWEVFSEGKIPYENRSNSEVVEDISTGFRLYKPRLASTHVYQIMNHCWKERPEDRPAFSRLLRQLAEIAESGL
# Protocol: as §1
# MKK7 = molecular target: T5, MKK7 (Homo sapiens, UniProt O14733); details: 200 nM compound, duplicate mean, [ATP] = 10 μM; read-out: Residual Activity @ 200 nM, MKK7
# T5 construct: purchased Reaction Biology Corporation
# T5 sequence (O14733 1-419): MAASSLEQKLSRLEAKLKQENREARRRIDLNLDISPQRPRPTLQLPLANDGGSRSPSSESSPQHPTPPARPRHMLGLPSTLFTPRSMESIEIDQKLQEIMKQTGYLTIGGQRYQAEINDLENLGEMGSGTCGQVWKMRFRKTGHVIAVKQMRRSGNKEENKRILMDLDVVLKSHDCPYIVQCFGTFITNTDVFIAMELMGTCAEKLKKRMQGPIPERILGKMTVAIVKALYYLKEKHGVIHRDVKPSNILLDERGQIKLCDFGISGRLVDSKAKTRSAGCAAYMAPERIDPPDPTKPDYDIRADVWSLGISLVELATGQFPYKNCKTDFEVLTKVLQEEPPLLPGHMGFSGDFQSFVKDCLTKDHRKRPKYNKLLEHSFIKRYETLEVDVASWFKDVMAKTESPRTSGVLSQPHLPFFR
# Protocol: as §1
# TXK = molecular target: T6, TXK (Homo sapiens, UniProt P42681); details: for remaining activity at 0.2 µM: read-out: Residual Activity @ 200 nM, TXK; for IC50: five-dose singlicate
# T6 construct: purchased Reaction Biology Corporation
# T6 sequence (P42681 1-527): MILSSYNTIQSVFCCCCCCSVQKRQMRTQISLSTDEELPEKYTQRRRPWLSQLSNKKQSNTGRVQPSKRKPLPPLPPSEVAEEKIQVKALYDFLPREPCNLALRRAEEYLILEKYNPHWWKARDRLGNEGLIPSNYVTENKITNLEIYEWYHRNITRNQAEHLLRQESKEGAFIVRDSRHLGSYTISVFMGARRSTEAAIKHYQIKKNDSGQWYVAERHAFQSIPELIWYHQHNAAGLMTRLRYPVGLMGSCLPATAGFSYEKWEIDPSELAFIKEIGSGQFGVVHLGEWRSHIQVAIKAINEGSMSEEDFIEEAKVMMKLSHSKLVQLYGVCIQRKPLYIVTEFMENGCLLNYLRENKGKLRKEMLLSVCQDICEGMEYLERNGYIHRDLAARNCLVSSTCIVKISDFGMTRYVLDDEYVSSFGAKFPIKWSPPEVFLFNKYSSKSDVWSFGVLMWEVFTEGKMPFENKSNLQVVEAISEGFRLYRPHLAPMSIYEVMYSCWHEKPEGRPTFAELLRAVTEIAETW
# Protocol: as §1
# [1] = 200 nM compound, duplicate mean
# [2] = 200 nM compound, duplicate mean, [ATP] = 10 μM
# [3] = radiometric HotSpot, [ATP] = 10 μM
# [4] = radiometric HotSpot, five-dose singlicate
SMILES,remaining activity at 0.2 µM (BLK) [%],remaining activity at 0.2 µM (BMX) [%],remaining activity at 0.2 µM (BTK; [1]) [%],remaining activity at 0.2 µM (ITK) [%],remaining activity at 0.2 µM (MKK7) [%],remaining activity at 0.2 µM (TXK; [2]) [%],IC50 (BMX) [nM],IC50 (TXK; [3]) [nM],"remaining activity at 1 µM (TXK; 1 µM compound, radiometric HotSpot, read-out: residual activity at 1 µM, TXK) [%]","Residual Activity @ 200 nM, BTK (BTK; [1]) [%]","Residual Activity @ 200 nM, TXK (TXK; [2]) [%]",IC50 (BLK; [4]) [nM],IC50 (BTK; [4]) [nM]
"C=CC(=O)Nc1cccc(-c2c[nH]c3ncccc23)c1 [Compound 9a, N-(3-(1H-pyrrolo[2,3-b]pyridin-3-yl)phenyl)acrylamide]",95.8,2.7,18.2,88.1,37.3,1.8,,,,,,,
"C=CC(=O)Nc1cccc(-c2c[nH]c3ncc(C(N)=O)cc23)c1 [Compound 10a, 3-(3-acrylamidophenyl)-1H-pyrrolo[2,3-b]pyridine-5-carboxamide]",82.4,1.6,18.9,90.8,28.3,3.2,29,28,,,,,
"C=CC(=O)Nc1cccc(-c2c[nH]c3ncc(C(=O)NC4CCCC4)cc23)c1 [Compound 11a, 3-(3-acrylamidophenyl)-N-cyclopentyl-1H-pyrrolo[2,3-b]pyridine-5-carboxamide]",,,,,,,539,> 1000,72,,,,
"CCC(=O)Nc1cccc(-c2c[nH]c3ncc(NC(=O)C4CCCC4)cc23)c1 [Compound 12b, N-(3-(3-propionamidophenyl)-1H-pyrrolo[2,3-b]pyridin-5-yl)cyclopentanecarboxamide]",95.1,,70,,,89,582,,,69.7,88.8,,
"C=CC(=O)Nc1cccc(-c2c[nH]c3ncc(NC(=O)c4cccs4)cc23)c1 [Compound 12c, N-(3-(3-acrylamidophenyl)-1H-pyrrolo[2,3-b]pyridin-5-yl)thiophene-2-carboxamide]",8.6,,0.8,94,> 100,0.3,,10,,,,30,< 1
